Measurements published in patent US10125134B2 (Mirati Therapeutics, Inc., priority 2016, dated 2018).

Key:
[1] = test system: NCI-H358 cells (express KRas G12C), Phospho-ERK; assay: Cellular inhibition of KRas G12C: Phospho-ERK in NCI-H358 cells; assay type: cell-based; conditions: Homo sapiens, NCI-H358, 3 h, pERK(Thr202/Tyr204) normalized with GAPDH; NCI-H358 cells; 3 hours; read-out: IC50
Method in brief: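 IC50 derived by 4-parameter fit of GAPDH-normalized pERK(Thr202/Tyr204) signal, as percent of DMSO control. Signal came from in-cell immunodetection with infrared secondaries after 3 h compound exposure of KRas G12C NCI-H358 cells at 0.5% DMSO.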

KRas G12C = KRas G12C (Homo sapiens, UniProt P01116, C118S/C51S/C80L/G12C); assay: KRas G12C Modification Assay (LCMS detection of covalent adduct); assay type: binding; conditions: normalized percent of control; tested at 5 μM concentration for 3 hours
Method in brief: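 Covalent modification was read by reverse-phase LC/MS of intact protein after compound exposure, each reaction stopped at its time point with 25 mM acetic acid. Unmodified-protein signal, taken as percent of total, was normalised to untreated protein and reported as POC.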

| SMILES | POC (KRas G12C) | IC50 [1] [nM] |
| --- | --- | --- |
| C=CC(=O)N1CCN(c2nc(O[C@H](C)[C@H]3CCCN3C)nc3c2CCN(c2cc(O)cc4ccccc24)C3)C[C@@H]1CC#N [Example 348, 2-[(2S)-4-[7-(3-hydroxy-1-naphthyl)-2-[(1R)-1-[(2R)-1-methylpyrrolidin-2-yl]ethoxy]-6,8-dihydro-5H-pyrido[3,4-d]pyrimidin-4-yl]-1-prop-2-enoyl-piperazin-2-yl]acetonitrile] | C (“C”>50% POC) | 0.1 to 1000 |
| C=CC(=O)N1CCN(c2nc(OC[C@@H]3CCCN3C)nc3c2CCN(c2c(C)ccc(F)c2C)C3)C[C@@H]1CC#N [Example 349, 2-((S)-1-acryloyl-4-(7-(3-fluoro-2,6-dimethylphenyl)-2-(((S)-1-methylpyrrolidin-2-yl)methoxy)-5,6,7,8-tetrahydropyrido[3,4-d]pyrimidin-4-yl)piperazin-2-yl)acetonitrile] | C (“C”>50% POC) | 0.1 to 1000 |
| C=CC(=O)N1CCN(c2nc(OC[C@@H]3CCN(C)C3)nc3c2CCN(c2cc(O)cc4ccccc24)C3)C[C@@H]1CC#N [Example 350, 2-((S)-1-acryloyl-4-(7-(3-hydroxynaphthalen-1-yl)-2-(((R)-1-methylpyrrolidin-3-yl)methoxy)-5,6,7,8-tetrahydropyrido[3,4-d]pyrimidin-4-yl)piperazin-2-yl)acetonitrile] | C (“C”>50% POC) | 0.1 to 1000 |
| C=CC(=O)N1CCN(c2nc(OCc3ncc[nH]3)nc3c2CCN(c2cccc4ccccc24)C3)C[C@@H]1CC#N [Example 351, 2-[(2S)-4-[2-(1H-imidazol-2-ylmethoxy)-7-(1-naphthyl) -6,8-dihydro-5H-pyrido[3,4-d]pyrimidin-4-yl]-1-prop-2-enoyl-piperazin-2-yl]acetonitrile] | C (“C”>50% POC) | 0.1 to 1000 |
| C=CC(=O)N1CCN(c2nc(OC[C@@H]3CCCN3C)nc3c2CCN(c2cnccc2C2CC2)C3)C[C@@H]1CC#N [Example 352, 2-[(2S)-4-[7-(4-cyclopropyl-3-pyridyl)-2-[[(2S)-1-methylpyrrolidin-2-yl]methoxy]-6,8-dihydro-5H-pyrido[3,4-d]pyrimidin-4-yl]-1-prop-2-enoyl-piperazin-2-yl]acetonitrile] | C (“C”>50% POC) | 0.1 to 1000 |
| C=CC(=O)N1CCN(c2nc(OC[C@@H]3CCCN3C)nc3c2CCN(c2cccc4ccccc24)C3)[C@H](C)C1 [Example 353, 1-[(3R)-3-methyl-4-[2-[[(2S)-1-methylpyrrolidin-2-yl]methoxy]-7-(1-naphthyl)-6,8-dihydro-5H-pyrido[3,4-d]pyrimidin-4-yl]piperazin-1-yl]prop-2-en-1-one] | C (“C”>50% POC) | > 1000 |
| C=CC(=O)N1CCN(c2nc(OC[C@@H]3CCCN3C)nc3c2CCN(c2cccc4ccccc24)C3)C(C)(C)C1 [Example 354, 1-[3,3-dimethyl-4-[2-[[(2S)-1-methylpyrrolidin-2-yl]methoxy]-7-(1-naphthyl)-6,8-dihydro-5H-pyrido[3,4-d]pyrimidin-4-yl]piperazin-1-yl]prop-2-en-1-one] | C (“C”>50% POC) | > 1000 |
| C=CC(=O)N1CCN(c2nc(OC[C@@H]3C[C@@H](F)CN3C)nc3c2CCN(c2cc(OC)cc4ccccc24)C3)CC1 [Example 355, 1-[4-[2-[[(2S,4R)-4-fluoro-1-methyl-pyrrolidin-2-yl]methoxy]-7-(3-methoxy-1-naphthyl)-6,8-dihydro-5H-pyrido[3,4-d]pyrimidin-4-yl]piperazin-1-yl]prop-2-en-1-one] | A (“A”≤25% POC) | > 1000 |
| C=CC(=O)N1CCN(c2nc(OC[C@@H]3C[C@@H](OC)CN3C)nc3c2CCN(c2cc(OC)cc4ccccc24)C3)CC1 [Example 356, 1-[4-[2-[[(2S,4R)-4-methoxy-1-methyl-pyrrolidin-2-yl]methoxy]-7-(3-methoxy-1-naphthyl)-6,8-dihydro-5H-pyrido[3,4-d]pyrimidin-4-yl]piperazin-1-yl]prop-2-en-1-one] | C (“C”>50% POC) | > 1000 |
| C=CC(=O)N1CCN(c2nc(OC[C@@H]3C[C@@H](F)CN3C)nc3c2CCN(c2cc(O)cc4ccccc24)C3)CC1 [Example 357, 1-[4-[2-[[(2S,4R)-4-fluoro-1-methyl-pyrrolidin-2-yl]methoxy]-7-(3-hydroxy-1-naphthyl)-6,8-dihydro-5H-pyrido[3,4-d]pyrimidin-4-yl]piperazin-1-yl]prop-2-en-1-one] | A (“A”≤25% POC) | 0.1 to 1000 |
| C#CC[C@H]1CN(c2nc(OC[C@@H]3CCCN3C)nc3c2CCN(c2cccc4ccccc24)C3)CCN1C(=O)C=C [Example 358, 1-[(2S)-4-[2-[[(2S)-1-methylpyrrolidin-2-yl]methoxy]-7-(1-naphthyl)-6,8-dihydro-5H-pyrido[3,4-d]pyrimidin-4-yl]-2-prop-2-ynyl-piperazin-1-yl]prop-2-en-1-one] | C (“C”>50% POC) | 0.1 to 1000 |

Now from value to compound, other results behind:

| POC (KRas G12C) | SMILES | IC50 [1] [nM] |
| --- | --- | --- |
| C (“C”>50% POC) | C=CC(=O)N1CCN(c2nc(OC[C@@H]3CCCN3C)nc3c2CCN(c2cccc4cccc(C)c24)C3)C[C@@H]1CC#N [Example 359, 2-((S)-1-acryloyl-4-(7-(8-methylnaphthalen-1-yl)-2-(((S)-1-methylpyrrolidin-2-yl)methoxy)-5,6,7,8-tetrahydropyrido[3,4-d]pyrimidin-4-yl)piperazin-2-yl)acetonitrile] | 0.1 to 1000 |
| C (“C”>50% POC) | C=CC(=O)N1CCN(c2nc(OC[C@@H]3CCCN3C)nc3c2CCN(c2cccc4cccc(CC)c24)C3)C[C@@H]1CC#N [Example 360, 2-[(2S)-4-[7-(8-ethyl-1-naphthyl)-2-[[(2S)-1-methylpyrrolidin-2-yl]methoxy]-6,8-dihydro-5H-pyrido[3,4-d]pyrimidin-4-yl]-1-prop-2-enoyl-piperazin-2-yl]acetonitrile] | 0.1 to 1000 |
| C (“C”>50% POC) | C=CC(=O)N1CCN(c2nc(OC[C@@H]3CCN(C)C3)nc3c2CCN(c2cccc4cccc(Cl)c24)C3)C[C@@H]1CC#N [Example 361, 2-[(2S)-4-[7-(8-chloro-1-naphthyl)-2-[[(3R)-1-methylpyrrolidin-3-yl]methoxy]-6,8-dihydro-5H-pyrido[3,4-d]pyrimidin-4-yl]-1-prop-2-enoyl-piperazin-2-yl]acetonitrile] | 0.1 to 1000 |
| C (“C”>50% POC) | C=CC(=O)N1CCN(c2nc(OCCN3CCCCC3)nc3c2CCN(c2cccc4cccc(Cl)c24)C3)C[C@@H]1CC#N [Example 362, 2-[(2S)-4-[7-(8-chloro-1-naphthyl)-2-[2-(1-piperidyl)ethoxy]-6,8-dihydro-5H-pyrido[3,4-d]pyrimidin-4-yl]-1-prop-2-enoyl-piperazin-2-yl]acetonitrile] | 0.1 to 1000 |
| C (“C”>50% POC) | C=CC(=O)N1CCN(c2nc(OC[C@H]3CN(C)CCO3)nc3c2CCN(c2cccc4cccc(Cl)c24)C3)C[C@@H]1CC#N [Example 363, 2-[(2S)-4-[7-(8-chloro-1-naphthyl)-2-[[(2R)-4-methylmorpholin-2-yl]methoxy]-6,8-dihydro-5H-pyrido[3,4-d]pyrimidin-4-yl]-1-prop-2-enoyl-piperazin-2-yl]acetonitrile] | 0.1 to 1000 |
| C (“C”>50% POC) | C=CC(=O)N1CCN(c2nc(OC[C@@H]3CCCN3C)nc3c2CCN(c2cccc(C)c2C(F)(F)F)C3)C[C@@H]1CC#N [Example 364, 2-[(2S)-4-[2-[[(2S)-1-methylpyrrolidin-2-yl]methoxy]-7-[3-methyl-2-(trifluoromethyl)phenyl]-6,8-dihydro-5H-pyrido[3,4-d]pyrimidin-4-yl]-1-prop-2-enoyl-piperazin-2-yl]acetonitrile] | 0.1 to 1000 |
| C (“C”>50% POC) | C=CC(=O)N1CCN(c2nc(OCCCN3C[C@@H]4C[C@H]3CO4)nc3c2CCN(c2cccc4cccc(Cl)c24)C3)C[C@@H]1CC#N [Example 365, 2-[(2S)-4-[7-(8-chloro-1-naphthyl)-2-[3-[(1S,4S)-2-oxa-5-azabicyclo[2.2.1]heptan-5-yl]propoxy]-6,8-dihydro-5H-pyrido[3,4-d]pyrimidin-4-yl]-1-prop-2-enoyl-piperazin-2-yl]acetonitrile] | 0.1 to 1000 |
| C (“C”>50% POC) | C=CC(=O)N1CCN(c2nc(OC[C@@H]3CC(F)(F)CN3C)nc3c2CCN(c2cccc4cccc(Cl)c24)C3)C[C@@H]1CC#N [Example 366, 2-[(2S)-4-[7-(8-chloro-1-naphthyl)-2-[[(2S)-4,4-difluoro-1-methyl-pyrrolidin-2-yl]methoxy]-6,8-dihydro-5H-pyrido[3,4-d]pyrimidin-4-yl]-1-prop-2-enoyl-piperazin-2-yl]acetonitrile] | 0.1 to 1000 |
| C (“C”>50% POC) | CN1CCC[C@H]1COc1nc2c(c(N3CCN(C(=O)/C=C/CN4CCOCC4)[C@@H](CC#N)C3)n1)CCN(c1cccc3cccc(Cl)c13)C2 [Example 367, 2-[(2S)-4-[7-(8-chloro-1-naphthyl)-2-[[(2S)-1-methylpyrrolidin-2-yl]methoxy]-6,8-dihydro-5H-pyrido[3,4-d]pyrimidin-4-yl]-1-[(E)-4-morpholinobut-2-enoyl]piperazin-2-yl]acetonitrile] | 0.1 to 1000 |
| C (“C”>50% POC) | C=CC(=O)N1C[C@H](C)N(c2nc(OC[C@@H]3CCCN3C)nc3c2CCN(c2cccc4ccccc24)C3)C[C@@H]1CC#N [Example 368, 2-((2S,5S)-1-acryloyl-5-methyl-4-(2-(((S)-1-methylpyrrolidin-2-yl)methoxy)-7-(naphthalen-1-yl)-5,6,7,8-tetrahydropyrido[3,4-d]pyrimidin-4-yl)piperazin-2-yl)acetonitrile] | > 1000 |
